Test results reported in patent publication US11759455B2, “Substituted 1H-imidazo[4,5-b]pyridin-2(3H)-ones and their use as GLUN2B receptor modulators” (JANSSEN PHARMACEUTICA NV, priority 2016, dated 2023).
Where two headings read alike, the source gives them in different places.

Molecular target: T1, human GluN1/GluN2B NMDA receptors (Homo sapiens, UniProt Q13224)
T1 construct: expressed in transfected cells
Assay: Cell-based calcium flux (FLIPR) assay on cloned human NR1/NR2B ion channels expressed in mammalian cells (standard and HTS buffer variants);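 also: stable Tet-On inducible cell line, Ca2+ influx triggered by glutamate at about EC40 plus 10 µM glycine, fluorescent dye read-out over 5 min, normalized to control wells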

[1] = standard assay buffer (0.5 mM MgCl2 dye loading; 137 mM NaCl, 4 mM KCl assay buffer), human GluN1/GluN2B cells, read-out: NR2B IC50 (μM) standard assay
[2] = standard assay buffer (0.5 mM MgCl2 in dye loading buffer; 137 mM NaCl, 4 mM KCl in assay buffer), human GluN1/GluN2B, read-out: NR2B IC50 (μM) standard assay
[3] = HTS assay buffer (1.5 mM MgCl2 in dye loading buffer; 150 mM NaCl, 3 mM KCl in assay buffer), human GluN1/GluN2B, read-out: NR2B IC50 (μM) HTS assay
[4] = HTS assay buffer (1.5 mM MgCl2 dye loading; 150 mM NaCl, 3 mM KCl assay buffer), human GluN1/GluN2B cells, read-out: NR2B IC50 (μM) HTS assay

T1 sequence (Q13224 27-1484, other chains not shown): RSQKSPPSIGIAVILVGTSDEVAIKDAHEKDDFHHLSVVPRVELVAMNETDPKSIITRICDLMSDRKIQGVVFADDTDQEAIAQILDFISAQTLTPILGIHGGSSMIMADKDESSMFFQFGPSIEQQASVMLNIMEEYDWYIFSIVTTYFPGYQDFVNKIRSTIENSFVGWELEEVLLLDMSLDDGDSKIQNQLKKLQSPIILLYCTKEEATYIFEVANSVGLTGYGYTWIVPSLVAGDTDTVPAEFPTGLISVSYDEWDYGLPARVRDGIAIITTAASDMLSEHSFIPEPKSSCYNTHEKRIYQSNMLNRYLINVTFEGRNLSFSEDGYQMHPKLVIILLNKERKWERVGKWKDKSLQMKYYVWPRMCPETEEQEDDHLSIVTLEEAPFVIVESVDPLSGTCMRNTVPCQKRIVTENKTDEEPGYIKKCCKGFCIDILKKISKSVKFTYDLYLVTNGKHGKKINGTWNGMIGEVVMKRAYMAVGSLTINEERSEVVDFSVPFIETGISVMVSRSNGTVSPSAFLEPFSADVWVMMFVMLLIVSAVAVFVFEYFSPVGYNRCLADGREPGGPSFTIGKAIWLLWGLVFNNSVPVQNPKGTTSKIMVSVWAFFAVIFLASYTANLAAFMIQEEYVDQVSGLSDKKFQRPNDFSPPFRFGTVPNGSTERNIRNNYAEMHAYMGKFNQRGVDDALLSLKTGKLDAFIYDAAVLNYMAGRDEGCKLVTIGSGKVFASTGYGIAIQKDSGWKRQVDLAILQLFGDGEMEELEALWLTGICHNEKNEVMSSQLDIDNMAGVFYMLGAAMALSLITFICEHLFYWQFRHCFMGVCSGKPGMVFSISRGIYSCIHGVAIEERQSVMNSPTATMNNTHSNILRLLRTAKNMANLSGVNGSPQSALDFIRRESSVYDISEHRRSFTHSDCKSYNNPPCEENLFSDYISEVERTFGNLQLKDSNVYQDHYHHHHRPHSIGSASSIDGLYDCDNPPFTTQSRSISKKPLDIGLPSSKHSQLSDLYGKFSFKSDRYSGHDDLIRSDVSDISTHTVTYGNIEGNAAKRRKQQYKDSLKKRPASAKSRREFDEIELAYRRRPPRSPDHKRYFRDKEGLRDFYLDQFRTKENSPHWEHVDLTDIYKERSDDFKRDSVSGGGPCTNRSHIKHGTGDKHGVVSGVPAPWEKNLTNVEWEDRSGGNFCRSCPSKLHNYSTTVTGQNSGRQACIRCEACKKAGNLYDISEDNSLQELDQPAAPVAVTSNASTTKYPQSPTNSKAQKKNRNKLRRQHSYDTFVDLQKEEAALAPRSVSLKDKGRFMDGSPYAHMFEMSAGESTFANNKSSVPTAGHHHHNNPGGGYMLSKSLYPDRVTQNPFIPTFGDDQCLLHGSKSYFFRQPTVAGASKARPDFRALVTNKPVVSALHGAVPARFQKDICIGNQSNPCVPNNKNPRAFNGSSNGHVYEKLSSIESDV

SMILES | IC50 [1] [µM] | IC50 [2] [µM] | other results
CN(C)C(=O)Cn1c(=O)n(C)c2ncc(-c3ccc(CO)s3)cc21 [Example 91, 2-[6-[5-(Hydroxymethyl)-2-thienyl]-3-methyl-2-oxo-imidazo[4,5-b]pyridin-1-yl]-N,N-dimethyl-acetamide] | 1.7 | – | –
Cn1c(=O)n(Cc2cccnc2)c2cc(-c3ccc(F)c(F)c3)cnc21 [Example 59, 6-(3,4-Difluorophenyl)-3-methyl-1-(3-pyridylmethyl)imidazo[4,5-b]pyridin-2-one] | 0.246 | – | –
O=c1[nH]c2ncc(-c3cccc(C(F)(F)F)c3)cc2n1CCN1CCC(F)CC1 [Example 162, 1-[2-(4-Fluoro-1-piperidyl)ethyl]-6-[3-(trifluoromethyl)phenyl]-3H-imidazo[4,5-b]pyridin-2-one] | 1.1 | – | –
O=c1[nH]c2ncc(-c3cccc(Cl)c3)cc2n1CCN1CCC1 [Example 158, 1-[2-(Azetidin-1-yl)ethyl]-6-(3-chlorophenyl)-3H-imidazo[4,5-b]pyridin-2-one] | 0.201 | – | –
COC1CN(C(=O)Cn2c(=O)[nH]c3ncc(-c4cccc(C(F)(F)F)c4)cc32)C1 [Example 191, 1-[2-(3-Methoxyazetidin-1-yl)-2-oxo-ethyl]-6-[3-(trifluoromethyl)phenyl]-3H-imidazo[4,5-b]pyridin-2-one] | 0.132 | – | –
CN1CCN(C(=O)Cn2c(=O)[nH]c3ncc(-c4cccc(C(F)(F)F)c4)cc32)CC1 [Example 193, 1-[2-(4-Methylpiperazin-1-yl)-2-oxo-ethyl]-6-[3-(trifluoromethyl)phenyl]-3H-imidazo[4,5-b]pyridin-2-one] | 0.587 | – | –
CCOc1ccccc1-c1cnc2[nH]c(=O)n(Cc3ccccc3F)c2c1 [Example 503, 6-(2-Ethoxyphenyl)-1-[(2-fluorophenyl)methyl]-3H-imidazo[4,5-b]pyridin-2-one] | – | – | IC50 [3]: 5.49 µM
CCOc1ccc(F)cc1-c1cnc2[nH]c(=O)n(Cc3c(C)noc3C)c2c1 [Example 514, 1-[(3,5-Dimethylisoxazol-4-yl)methyl]-6-(2-ethoxy-5-fluoro-phenyl)-3H-imidazo[4,5-b]pyridin-2-one] | – | – | IC50 [3]: > 29 µM
Cn1c(=O)n(CC(=O)N2CC(F)C2)c2cc(-c3cc(F)c(F)c(F)c3)cnc21 [Example 402, 1-[2-(3-Fluoroazetidin-1-yl)-2-oxo-ethyl]-3-methyl-6-(3,4,5-trifluorophenyl)imidazo[4,5-b]pyridin-2-one] | – | 0.016 | –
Cc1c(F)ccc(-c2cnc3c(c2)n(Cc2ncccn2)c(=O)n3C)c1F [Example 65, 6-(2,4-Difluoro-3-methyl-phenyl)-3-methyl-1-(pyrimidin-2-ylmethyl)imidazo[4,5-b]pyridin-2-one] | 0.81 | – | –
COc1ccc(-c2cnc3[nH]c(=O)n(CC(=O)N4CCCC4)c3c2)cc1 [Example 35, 6-(4-Methoxyphenyl)-1-(2-oxo-2-pyrrolidin-1-yl-ethyl)-3H-imidazo[4,5-b]pyridin-2-one] | – | – | IC50 [4]: 2.14 µM
Cc1cccc(C)c1-c1cnc2[nH]c(=O)n(CCN3CCCC3)c2c1 [Example 178, 6-(2,6-Dimethylphenyl)-1-(2-pyrrolidin-1-ylethyl)-3H-imidazo[4,5-b]pyridin-2-one] | 20.7 | – | –
Cc1ccccc1-c1cnc2[nH]c(=O)n(CCN3CCC3)c2c1 [Example 152, 1-[2-(Azetidin-1-yl)ethyl]-6-(o-tolyl)-3H-imidazo[4,5-b]pyridin-2-one] | 0.127 | – | –
Cn1c(=O)n(Cc2cccnc2)c2cc(-c3cccc(C(F)(F)F)c3F)cnc21 [Example 358, 6-[2-Fluoro-3-(trifluoromethyl)phenyl]-3-methyl-1-(3-pyridylmethyl)imidazo[4,5-b]pyridin-2-one] | – | 0.049 | –
O=C(Cn1c(=O)[nH]c2ncc(-c3cccc(C(F)(F)F)c3)cc21)N1CCCC1 [Example 201, 1-(2-Oxo-2-pyrrolidin-1-yl-ethyl)-6-[3-(trifluoromethyl)phenyl]-3H-imidazo[4,5-b]pyridin-2-one] | 0.033 | – | –
COc1ccc(-c2cnc3[nH]c(=O)n(CC(=O)NC4CC4)c3c2)c(Cl)c1 [Example 37, 2-[6-(2-Chloro-4-methoxy-phenyl)-2-oxo-3H-imidazo[4,5-b]pyridin-1-yl]-N-cyclopropyl-acetamide] | – | – | IC50 [4]: 1.38 µM
Cc1cccnc1Cn1c(=O)[nH]c2ncc(-c3cccc(F)c3)cc21 [Example 285, 6-(3-Fluorophenyl)-1-[(3-methyl-2-pyridyl)methyl]-3H-imidazo[4,5-b]pyridin-2-one] | > 10 | – | –
Cn1c(=O)n(CC(=O)N2CCC2)c2cc(-c3ccc(C4CC4)s3)cnc21 [Example 105, 1-[2-(Azetidin-1-yl)-2-oxo-ethyl]-6-(5-cyclopropyl-2-thienyl)-3-methyl-imidazo[4,5-b]pyridin-2-one] | 0.081 | – | –
CCOc1cccc(-c2cnc3[nH]c(=O)n(CC(=O)c4cccs4)c3c2)c1 [Example 463, 6-(3-Ethoxyphenyl)-1-[2-oxo-2-(2-thienyl)ethyl]-3H-imidazo[4,5-b]pyridin-2-one] | – | – | IC50 [3]: 0.36 µM
O=c1[nH]c2ncc(-c3cccc(Cl)c3)cc2n1Cc1cccnc1 [Example 296, 6-(3-Chlorophenyl)-1-(3-pyridylmethyl)-3H-imidazo[4,5-b]pyridin-2-one] | 0.029 | – | –
CN(C)C(=O)Cn1c(=O)n(C)c2ncc(-c3ccc(F)c(F)c3)cc21 [Example 421, 2-[6-(3,4-Difluorophenyl)-3-methyl-2-oxo-imidazo[4,5-b]pyridin-1-yl]-N,N-dimethyl-acetamide] | – | 0.053 | –
COc1ccc(-c2cnc3[nH]c(=O)n(CC(=O)N(C)C4CC4)c3c2)cc1 [Example 41, N-Cyclopropyl-2-[6-(4-methoxyphenyl)-2-oxo-3H-imidazo[4,5-b]pyridin-1-yl]-N-methyl-acetamide] | – | – | IC50 [4]: 8.72 µM
Cn1c(=O)n(Cc2cccnc2)c2cc(-c3ccc(F)c(F)c3F)cnc21 [Example 361, 3-Methyl-1-(3-pyridylmethyl)-6-(2,3,4-trifluorophenyl)imidazo[4,5-b]pyridin-2-one] | – | 1.54 | –
Cc1cccnc1Cn1c(=O)[nH]c2ncc(-c3cccc(C(F)(F)F)c3)cc21 [Example 315, 1-[(3-Methyl-2-pyridyl)methyl]-6-[3-(trifluoromethyl)phenyl]-3H-imidazo[4,5-b]pyridin-2-one] | > 10 | – | –
Cc1ccncc1Cn1c(=O)[nH]c2ncc(-c3ccc(F)c(C(F)(F)F)c3)cc21 [Example 314, 6-[4-Fluoro-3-(trifluoromethyl)phenyl]-1-[(4-methyl-3-pyridyl)methyl]-3H-imidazo[4,5-b]pyridin-2-one] | 0.049 | – | –
Cn1c(=O)n(Cc2cccnn2)c2cc(-c3ccc(F)c(C(F)(F)F)c3)cnc21 [Example 382, 6-[4-Fluoro-3-(trifluoromethyl)phenyl]-3-methyl-1-(pyridazin-3-ylmethyl)imidazo[4,5-b]pyridin-2-one] | – | 0.016 | –
N#Cc1cccc(Cn2c(=O)[nH]c3ncc(-c4cccc(C(F)(F)F)c4)cc32)c1 [Example 212, 3-[[2-Oxo-6-[3-(trifluoromethyl)phenyl]-3H-imidazo[4,5-b]pyridin-1-yl]methyl]benzonitrile] | 0.123 | – | –
Cc1cncc(Cn2c(=O)[nH]c3ncc(-c4cccc(F)c4)cc32)c1 [Example 274, 6-(3-Fluorophenyl)-1-[(5-methyl-3-pyridyl)methyl]-3H-imidazo[4,5-b]pyridin-2-one] | 0.057 | – | –

Continued, in another order:

IC50 [1] [µM] | IC50 [2] [µM] | SMILES | other results
– | 2.09 | CCOc1ccccc1-c1cnc2[nH]c(=O)n(Cc3cccc(OC)c3)c2c1 [Example 605, 6-(2-Ethoxyphenyl)-1-[(3-methoxyphenyl)methyl]-3H-imidazo[4,5-b]pyridin-2-one] | –
– | 0.036 | O=C(Cn1c(=O)n(CF)c2ncc(-c3ccc(C(F)(F)F)s3)cc21)N1CCC1 [Example 534, 1-[2-(Azetidin-1-yl)-2-oxo-ethyl]-3-(fluoromethyl)-6-[5-(trifluoromethyl)-2-thienyl]imidazo[4,5-b]pyridin-2-one] | –
– | 0.264 | CNC(=O)Cn1c(=O)[nH]c2ncc(-c3cccc(C(F)(F)F)c3)cc21 [Example 435, N-Methyl-2-[2-oxo-6-[3-(trifluoromethyl)phenyl]-3H-imidazo[4,5-b]pyridin-1-yl]acetamide] | –
– | 0.349 | Cn1cc(Cn2c(=O)n(C)c3ncc(-c4ccc(C(F)(F)F)s4)cc32)nn1 [Example 566, 3-Methyl-1-[(1-methyltriazol-4-yl)methyl]-6-[5-(trifluoromethyl)-2-thienyl]imidazo[4,5-b]pyridin-2-one] | –
– | 0.043 | Cc1noc(Cn2c(=O)n(C)c3ncc(-c4ccc(F)c(C)c4F)cc32)n1 [Example 573, 6-(2,4-Difluoro-3-methyl-phenyl)-3-methyl-1-[(3-methyl-1,2,4-oxadiazol-5-yl)methyl]imidazo[4,5-b]pyridin-2-one] | –
– | 0.216 | Cc1cc(Cn2c(=O)n(C)c3ncc(-c4ccc(C)s4)cc32)no1 [Example 558, 3-Methyl-1-[(5-methylisoxazol-3-yl)methyl]-6-(5-methyl-2-thienyl)imidazo[4,5-b]pyridin-2-one] | –
– | 0.358 | CNC(=O)Cn1c(=O)[nH]c2ncc(-c3ccc(F)cc3OC)cc21 [Example 440, 2-[6-(4-Fluoro-2-methoxy-phenyl)-2-oxo-3H-imidazo[4,5-b]pyridin-1-yl]-N-methyl-acetamide] | –
– | 0.025 | CN(C)C(=O)Cn1c(=O)n(C)c2ncc(-c3ccc(F)c(C(F)F)c3)cc21 [Example 533, 2-[6-[3-(Difluoromethyl)-4-fluoro-phenyl]-3-methyl-2-oxo-imidazo[4,5-b]pyridin-1-yl]-N,N-dimethyl-acetamide] | –
– | 0.023 | Cn1c(=O)n(CC(=O)N2CCC2)c2cc(-c3ccc(F)c(OC(F)F)c3)cnc21 [Example 588, 1-[2-(Azetidin-1-yl)-2-oxo-ethyl]-6-[3-(difluoromethoxy)-4-fluoro-phenyl]-3-methyl-imidazo[4,5-b]pyridin-2-one] | –
